From paper PMC7536072, “Molecular and functional characterization of somatostatin-type signalling in a deuterostome invertebrate” (Open Biology, 2020)
Entries after “also recorded” stand apart in the source; their conditions may differ. Bridges are numbered along the chain shown (N, C = ends). Where no end group is shown, it is not given here.

What was measured:
[1] = tested on: ArSSR1; test: GFP-aequorin luminescence receptor activation assay, CHO-K1 cells, ArSSR1 + Gα16; type: cell-based, Asterias rubens
[2] = tested on: ArSSR2; test: GFP-aequorin luminescence receptor activation assay, CHO-K1 cells, ArSSR2 + Gα16; type: cell-based, Asterias rubens
[3] = tested on: CHO-K1 cells transfected with an empty pcDNA3.1(+) vector; test: luminescence control assay, CHO-K1 cells transfected with empty vector; type: cell-based, Chinese hamster; details: 10^-12 to 10^-5 M (figure S12), 0.1 % Triton X-100 = 100%
Experimental: In order to characterize the candidate SS-type receptors, a G-protein-dependent receptor activation assay was employed. Chinese hamster ovary (CHO)-K1 cells stably overexpressing the calcium-sensitive bioluminescent reporter GFP-aequorin fusion protein (G5A) were used as a heterologous expression system. Plasmids containing A. rubens SS-type receptor cDNAs were co-transfected with the promiscuous human Gα16, which is widely used for receptor deorphanization assays. […] After 3 h incubation, a fixed volume of cells was injected sequentially into each well containing different concentrations of peptides using a FLUOstar Omega Plate Reader (BMG LABTECH, Ortenberg, Germany). Luminescence values were recorded over a 35 s period after injection. The total luminescence of each well over the 35 s period was calculated and normalized to the maximum value obtained in each experiment (100% activation) and to the value obtained with the vehicle media (0% activation). […] EC50 values were calculated from dose–response curves using Prism 6. The luminescence responses triggered by 10^−5 M ArSS1, 10^−5 M ArSS2 and vehicle media were analysed by one-way ANOVA using Bonferroni's multiple comparisons post hoc test in Prism 6. […]

[4] = tested on: tube foot preparations from A. rubens; test: in vitro relaxation of tube foot preparations; set-up: species or system Asterias rubens
Experimental: (§1) Synthetic ArSS2 ([…], with a disulfide bridge between the cysteine residues) was custom synthesized (Peptide Protein Research Ltd, Fareham, UK) to enable testing of its pharmacological effects on in vitro preparations of organs/muscles from A. rubens. ArSS2 was tested for its in vitro effects on the contractility of tube foot, apical muscle and cardiac stomach preparations from at least six different specimens of A. rubens. Individual tube foot preparations were dissected from starfish arms with their corresponding ampulla intact. […] Data collected from PowerLab were visualized as traces and analysed using LabChart (v. 8.0.7) software installed on a laptop computer (Lenovo E540, Windows 7 Professional). […]
To examine the effects of ArSS2 on tube foot and cardiac stomach preparations, 10^−6 M acetylcholine (ACh) or artificial seawater (ASW) containing 30 mM added KCl was used to induce contraction of these preparations, respectively. Once a stable baseline contracted state was achieved, synthetic ArSS2 was added into the organ bath to sequentially achieve final concentrations in the range of 10^−10 to 10^−6 M. For these experiments, the contracting effect of 10^−6 M ACh or ASW containing 30 mM added KCl was defined as 100% and the relaxing effects of ArSS2 were then calculated as a percentage reversal of the 100% contracted state.

[5] = tested on: apical muscle preparations from A. rubens; test: in vitro contractility of apical muscle preparations; set-up: species or system Asterias rubens; details: data not shown
Experimental: as §1, with “intact. Then cotton ligatures were tied around the ambulacral body wall and the tube foot disc and then the external epithelium of the tube foot was scraped off using a blunt scalpel blade to facilitate penetration of peptides when tested in vitro, as described previously. Apical muscle preparations were dissected from the aboral body wall with approximately 1 cm strips of apical muscle tied at each end with cotton ligatures. Cardiac stomach preparations were dissected as described previously and then were tied at the aboral side of the cardiac stomach and around the oesophagus with cotton ligatures.” for “intact.”

EC50 ([1]; ArSSR1 + Gα16 in CHO-K1 cells expressing GFP-aequorin (G5A), peptide 10^−21 to 10^−4 M, luminescence over 35 s, mean of at least three independent experiments, three repeats each, read-out: half-maximal response concentration (EC50)): 0.088 nM
EC50 ([2]; ArSSR2 + Gα16 in CHO-K1 cells expressing GFP-aequorin (G5A), peptide 10^−21 to 10^−4 M, luminescence over 35 s, mean of at least three independent experiments, three repeats each, read-out: half-maximal response concentration (EC50)): 0.0042 nM
Sequence: RAKNARCMADFWKGRGLVDC (disulfide 7-20 (inferred)) [ArSS2]
luminescence compared with control ([1]; ArSSR1, 10^−5 M, vs BSA media (control) and, for ArSS2, vs ArSS1, one-way ANOVA, Bonferroni): significantly higher than the luminescence in cells exposed to ArSS1 or BSA media (control)
triggering of luminescence ([1]; ArSSR1, 10^−21 to 10^−4 M): caused dose-dependent luminescence
efficacy compared between receptors ([1]; ArSSR1 and ArSSR2 vs ArSSR3, 10^−5 M): higher for ArSSR1 and ArSSR2 than for ArSSR3
mean total luminescence response relative to background ([2]; ArSSR2, 10^−5 M, background detected with assay media or with ArSS1): 166 303 times the background luminescence
luminescence compared with control ([2]; ArSSR2, 10^−5 M, vs BSA media (control) and, for ArSS2, vs ArSS1, one-way ANOVA, Bonferroni): significantly higher than the luminescence in cells exposed to ArSS1 or BSA media (control)
triggering of luminescence ([2]; ArSSR2, 10^−21 to 10^−4 M): caused dose-dependent luminescence
luminescence response in cells with empty vector [3]: do not trigger luminscence; also recorded: Neither ArSS1 nor ArSS2 elicited responses
reversal of ACh-induced tube foot contraction ([4]; 10^−6 M, contraction induced by 10^−6 M acetylcholine = 100%, artificial seawater, approximately 11°C, mean ± s.e.m., n = 6): 91% ± 13%
relaxation of tube foot preparations ([4]; pre-contracted with 10^−6 M ACh, tested 10^−10 to 10^−6 M): dose-dependent relaxation of tube foot preparations at concentrations between 10^−9 and 10^−6 M
effect on contractility of apical muscle preparations [5]: did not cause relaxation; also recorded: no observable effects
